Tested on: ØBLV = Σ % activity (CHEAL + KCHSC + AMATU + ABUTH)/4
Experiment: Greenhouse post-emergence weed control, average over broadleaf weeds (ØBLV, Tables 16-20)
Format: in vivo
Settings: average of CHEAL

In the case of `CP(=O)(O)CC[C@H](N)C(=O)O.N` [CE1-B, ammonium (2S)-2-amino-4-(methylphosphinato)butyric acid], the “% activity (ØBLV)” value (g ai/ha: 42.375 solo (CE1-C), 42.375 + 66.97 combined (IE3-A/B/C, CE2-J)) is reported as 8%, the “% activity (ØBLV)” value (g ai/ha: 84.75 solo (CE1-C), 84.75 + 133.94 combined (IE3-A/B/C, CE2-J)) is reported as 26% and the “% activity (ØBLV)” value (g ai/ha: 169.5 solo (CE1-C), 169.5 + 267.89 combined (IE3-A/B/C, CE2-J)) is reported as 27%. For the same compound, the “% activity (ØBLV)” value (g ai/ha: 339 solo (CE1-C), 339 + 535.77 combined (IE3-A/B/C, CE2-J)) was 53%.

Reference: US20260344661A1, “USE OF AN ALKYLETHER SULFATE FOR IMPROVING THE EFFICACY OF HERBICIDES” (BASF SE, priority 2022, published 2026)
